Assay results taken from US20260294915A1, “COMBINATION THERAPY COMPRISING A MAT2A INHIBITOR AND A TOPOISOMERASE INHIBITOR, A SPLICING INHIBITOR SULFONAMIDE, OR A KIF18 INHIBITOR” (IDEAYA BIOSCIENCES, INC., priority 2023, published 2026).
pIC50: −log10 of the molar value. Like-named read-outs stand apart in the source and are kept apart here.

Columns and labels:
[1] = system: LMSU (RCB1062) human gastric tumor cell-derived xenograft (CDX) models; experiment: Anti-tumor activity in LMSU gastric mouse xenograft (CDX) model (Example 9); assay type: in vivo; conditions: Compound A 10 mg/kg oral once per day
Description: (§1) All mouse studies were approved by the Institutional Animal Care and Use Committee (IACUC) based on guidelines from the National Institutes of Health (NIH). Mice were maintained under pathogen-free conditions, and food and water were provided ad libitum.
(§2) The anti-tumor effect of Compound A and irinotecan hydrochloride as single-agents or in combination was assessed in the LMSU (RCB1062) human gastric tumor cell-derived xenograft (CDX) models. LMSU was expanded in HamF10 with 10% fetal bovine serum. Cells were free of mycoplasma and authenticated by STR profiling, and ten million cells in log growth phase were resuspended in Hanks Balanced Salt Solution containing 50% Matrigel and implanted subcutaneously into the flank of each recipient female Crl:NU-Foxn1nu mouse. Mice were housed in microisolator cages with corn cob bedding with additional enrichment consisting of sterile nesting material (Innovive) and Bio-huts (Bio-Serv). Water (Innovive) and diet (Teklad Global 19% Protein Extruded Diet 2919, Irradiated) were provided ad libitum. The environment was maintained on a 12-hour light cycle at approximately 68-72° F. and 40-60% relative humidity.
(§3) Tumor Volume (TV) was calculated using the following formula: TV (mm^3)=(width×width×length)/2. Tumor growth inhibition (TGI) was calculated by [(TV controlfinal−TV treatedfinal)/(TV controlfinal−TV controlinitial)×100]. TV was analyzed for statistical significance utilizing GraphPad Prism version 10.2.2. Repeated Measures 2-Way ANOVA with Dunnet's Multiple Comparisons was utilized, and P-values were derived from data collected on the date of Vehicle group termination and were considered statistically significant if less than 0.05.
(§4) Mean tumor volume at dosing start was approximately 185 mm^3, with seven mice randomized to each treatment group. Mice were dosed orally, once per day, with Vehicle, Compound A at 10 mg/kg, or dosed for 3 consecutive days followed by 4 days holiday by intraperitoneal (IP) injection of Compound B at 5 mg/kg or 10 mg/kg, or combination of Compound A and Compound B. The vehicle group was a combination of Vehicle A (for Compound A, 0.5% 400 cps methylcellulose with 0.5% Tween-80 in sterile water) and Vehicle B (for irinotecan hydrochloride, Saline).

[2] = system: MKN45 (RCB1001) human gastric tumor cell-derived xenograft (CDX) model; experiment: Anti-tumor activity in MKN45 gastric mouse xenograft (CDX) model (Example 8); assay type: in vivo; conditions: Compound A 10 mg/kg oral once per day
Description: as §1
as §2, with “MKN45 (RCB1001)” for “LMSU (RCB1062)”, “model. MKN45” for “models. LMSU”, “RPMI1640” for “HamF10”
as §3
as §4, with “190” for “185”, “six” for “seven”

SKGT4 = experiment: 10-day proliferation screen with Compound A pre-treatment (Example 3); assay type: cell-based; conditions: read-out: Growth IC50
[3] = system: Panc 03.27 MTAP Knock-out Clone 31; experiment: as above; assay type: cell-based; conditions: Homo sapiens, read-out: Growth IC50
Description: (§5) A 10-day proliferation screen was performed in 15 pancreatic, non-small cell lung, and bladder cancer cell lines: 10 MTAP null and 5 MTAP wild-type. Optimal cell seeding for all cell lines was determined by assessing the growth over a range of seeding densities in a 384-well format to identify conditions that permitted proliferation for 10 days. […] Cells were incubated at 37° C. with 5% CO2 for 4 days to allow for target engagement of the pre-treatment compound. Maintaining the pre-treatment condition, cells were also treated with an 11-point, three-fold titration series of compounds from a chemically diverse library of 424 compounds. The combination compound concentrations ranged from 0.2 nM to 14,679 nM. A plate of cells was harvested at the time of combination compound addition to quantify the number of cells at the start of the combination (T0). For cell quantification, the harvested cells were lysed with CellTiter-Glo (CTG) (Promega) reagent according to the manufacturer's protocol and the chemiluminescent signal was detected on a Synergy Neo plate reader (ThermoFisher, serial #140715A). CTG estimates cell number through detection of cellular ATP levels. Cells were incubated with the drug combinations at 37° C. with 5% CO2 for an additional 6 days for a total of a 10-day assay including the pre-treatment. Cells were then lysed with CTG and the chemiluminescent signal was measured. CTG values obtained after the 10-day treatment were background subtracted, expressed as a percent of the T0 value, and plotted against compound concentration. Data were fit with a four-parameter equation to generate concentration response curves. Growth IC50 values and maximal growth inhibition were compared between the DMSO and the Compound A pre-treated cells for each combination titration. Combination hit calling was based on the observation of >2-fold shift in growth IC50 and/or greater than 20% […] in growth inhibition.

Panc 03.27 Parent = experiment: as above; assay type: cell-based; conditions: Homo sapiens, read-out: Growth IC50
Description: as §5

[4] = PANC-03-27, Cmpd A pre-treatment 15 nM

Row | Compound | Day 11 TGI [1] [%] | TGI [1] | Tumor Regression Rate on Day 11 [1] [%] | Day 11 TV (mean) ([1]; initial TV 186, vehicle 1018) [mm^3] | Day 25 TGI [2] [%] | Tumor Regression Rate on Day 25 [2] [%] | Day 25 TV (mean) ([2]; initial TV 191, vehicle 1396) [mm^3] | TGI ([2]; irinotecan 5 or 10 mg/kg IP 3 days on/4 days off) [%] | pIC50 (SKGT4; SKGT4, Cmpd A pre-treatment 150 nM) | pIC50 (SKGT4; SKGT4, DMSO pre-treatment) | pIC50 [3, 4] | pIC50 ([3]; PANC-03-27, DMSO pre-treatment) | pIC50 (Panc 03.27 Parent; [4]) | pIC50 (Panc 03.27 Parent; PANC-03-27, DMSO pre-treatment)
1 | Nc1nc(=O)n(-c2ccccc2Cl)c2nc(C(F)(F)F)ccc12 [Compound A] | −6 | no significant TGI | 0 | 1069 | 56 | 0 | 726 | 56 |  |  |  |  |  | 
2 | NS(=O)(=O)c1ccc(S(=O)(=O)Nc2cccc3c(Cl)c[nH]c23)cc1 [Indisulam, N-(3-chloro-1H-indol-7-yl)benzene-1,4-disulfonamide] |  |  |  |  |  |  |  |  | 6.29 | 5.97 | 6.06 | 5.66 | 6.21 | 6.09
